Laboratory results from patent US10076519B2 (CYTOKINETICS, INC., priority 2010, dated 2018).

Tested on: rabbit skeletal myofibrils (fast skeletal myofibrils)
Test: Activation of fast skeletal myofibrils (PUMA assay, PK/LDH-coupled ATPase at pCa25)
Format: biochemical
Method in brief: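 ATPase activity of Triton-washed rabbit skeletal myofibrils, roughly 90% fast fibres, tracked by NADH loss at 340 nm through a PK/LDH-coupled ADP-regenerating system. Calcium set to 25% of maximal activity (pCa25), in PIPES 12 mM pH 6.8 with 2 mM MgCl2 and 1 mM DTT; AC1.4 reported.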

[1] = AC1.4 determined according to the procedure of Example 39, reported as class symbols
[2] = median AC1.4 class, procedure of Example 39

| SMILES | Mean AC1.4 [1] | further results |
| --- | --- | --- |
| CC(C)(CNc1ccc(-c2ccc3nc(N)[nH]c3c2)nn1)c1ccc(F)cc1 [[6-(2-aminobenzimidazol-5-yl)pyridazin-3-yl][2-(4-fluorophenyl)-2-methylpropyl]amine] | A (A=<1 uM) | – |
| CC(C)(CNc1ccc(-c2c[nH]c(N)n2)nn1)c1ccc(F)cc1 [[6-(2-aminoimidazol-4-yl)pyridazin-3-yl][2-(4-fluorophenyl)-2-methylpropyl]amine] | B (B=1-10 uM) | – |
| Nc1nc(-c2ccc(NCC3(c4ncccc4F)CCC3)nn2)c[nH]1 [[6-(2-aminoimidazol-4-yl)pyridazin-3-yl]{[(3-fluoro(2-pyridyl))cyclobutyl]methyl}amine] | D (D=>20 uM) | – |
| Nc1nccc(-c2ccc(NCC3(c4ncccc4F)CCC3)nn2)n1 [[6-(2-aminopyrimidin-4-yl)pyridazin-3-yl]{[(3-fluoro(2-pyridyl))cyclobutyl]methyl}amine] | – | Mean AC1.4 [2]: B (B=1-10 uM) |
| Nc1ncc(-c2ccc(NC3(c4ccc(F)cc4)CCC3)nn2)cn1 [[6-(2-aminopyrimidin-5-yl)pyridazin-3-yl][(4-fluorophenyl)cyclobutyl]amine] | – | Mean AC1.4 [2]: B (B=1-10 uM) |
| Nc1ncc(-c2ccc(NC[C@]3(c4ncccc4F)C[C@H](F)C3)nn2)cn1 [[6-(2-aminopyrimidin-5-yl)pyridazin-3-yl]{[3-fluoro-1-(3-fluoro(2-pyridyl))cyclobutyl]methyl}amine] | – | Mean AC1.4 (median AC1.4 reported as class, procedure of Example 39): B (B=1-10 uM) |
| Nc1ncc(-c2ccc(NCC3(c4ncccc4F)CCC3)nn2)cn1 [[6-(2-aminopyrimidin-5-yl)pyridazin-3-yl]{[(3-fluoro(2-pyridyl))cyclobutyl]methyl}amine] | – | Mean AC1.4 [2]: B (B=1-10 uM) |
| CC(C)(CNc1ccc(-c2ccccc2Cl)nn1)c1ccc(F)cc1 [[6-(2-chlorophenyl)pyridazin-3-yl][2-(4-fluorophenyl)-2-methylpropyl]amine] | A (A=<1 uM) | – |
| CC(C)(CNc1ccc(-c2cccc(-c3nn[nH]n3)c2)nn1)c1ncccc1F [[6-(3-(2H-1,2,3,4-tetraazol-5-yl)phenyl)pyridazin-3-yl][2-(3-fluoro(2-pyridyl))-2-methylpropyl]amine] | – | Mean AC1.4 [2]: B (B=1-10 uM) |
| Fc1cccnc1[C@]1(CNc2ccc(-c3cccc(-c4nn[nH]n4)c3)nn2)C[C@@H](F)C1 [[6-(3-(2H-1,2,3,4-tetraazol-5-yl)phenyl)pyridazin-3-yl]{[3-fluoro-1-(3-fluoro(2-pyridyl))cyclobutyl]methyl}amine] | – | Mean AC1.4 [2]: A (A=<1 uM) |
| Fc1cccnc1C1(CNc2ccc(-c3cccc(-c4nn[nH]n4)c3)nn2)CCC1 [[6-(3-(2H-1,2,3,4-tetraazol-5-yl)phenyl)pyridazin-3-yl]{[(3-fluoro(2-pyridyl))cyclobutyl]methyl}amine] | – | Mean AC1.4 [2]: A (A=<1 uM) |
| CC(C)(CNc1ccc(-c2ccc3[nH]nc(N)c3c2)nn1)c1ncco1 [[6-(3-amino(1H-indazol-5-yl))pyridazin-3-yl](2-methyl-2-(1,3-oxazol-2-yl)propyl)amine] | D (D=>20 uM) | – |
| CC(CNc1ccc(-c2ccc3[nH]nc(N)c3c2)nn1)N1CCCCC1 (stereo not drawn) [[6-(3-amino(1H-indazol-5-yl))pyridazin-3-yl](2-piperidylpropyl)amine] | D (D=>20 uM) | – |
| Nc1n[nH]c2ccc(-c3ccc(NCC(F)(F)c4ccc(F)cc4)nn3)cc12 [[6-(3-amino(1H-indazol-5-yl))pyridazin-3-yl][2,2-difluoro-2-(4-fluorophenyl)ethyl]amine] | B (B=1-10 uM) | – |
| CC(C)(CNc1ccc(-c2ccc3[nH]nc(N)c3c2)nn1)c1ncc(F)cc1F [[6-(3-amino(1H-indazol-5-yl))pyridazin-3-yl][2-(3,5-difluoro(2-pyridyl))-2-methylpropyl]amine] | A (A=<1 uM) | – |
| CC(C)(CNc1ccc(-c2ccc3[nH]nc(N)c3c2)nn1)c1ncccc1F [[6-(3-amino(1H-indazol-5-yl))pyridazin-3-yl][2-(3-fluoro(2-pyridyl))-2-methylpropyl]amine] | B (B=1-10 uM) | – |
| CC(C)(CNc1ccc(-c2ccc3[nH]nc(N)c3c2)nn1)c1ccc(F)cc1 [[6-(3-amino(1H-indazol-5-yl))pyridazin-3-yl][2-(4-fluorophenyl)-2-methylpropyl]amine] | A (A=<1 uM) | – |
| CC(C)(CNc1ccc(-c2ccc3[nH]nc(N)c3c2)nn1)c1ccc(F)cn1 [[6-(3-amino(1H-indazol-5-yl))pyridazin-3-yl][2-(5-fluoro(2-pyridyl))-2-methylpropyl]amine] | B (B=1-10 uM) | – |
| Cc1ccccc1C(C)(C)CNc1ccc(-c2ccc3[nH]nc(N)c3c2)nn1 [[6-(3-amino(1H-indazol-5-yl))pyridazin-3-yl][2-methyl-2-(2-methylphenyl)propyl]amine] | A (A=<1 uM) | – |
| Nc1n[nH]c2ccc(-c3ccc(NC4(c5ncccc5F)CCC4)nn3)cc12 [[6-(3-amino(1H-indazol-5-yl))pyridazin-3-yl][(3-fluoro(2-pyridyl))cyclobutyl]amine] | – | Mean AC1.4 [2]: B (B=1-10 uM) |
| CC(C)(CNc1ccc(-c2ccc3[nH]nc(N)c3c2)nn1)c1cccc(CN)c1 [[6-(3-amino(1H-indazol-5-yl))pyridazin-3-yl]{2-[3-(aminomethyl)phenyl]-2-methylpropyl}amine] | C (C=10-20 uM) | – |
| CC(C)(CNc1ccc(-c2ccc3[nH]nc(N)c3c2)nn1)c1ccc(CN)cc1 [[6-(3-amino(1H-indazol-5-yl))pyridazin-3-yl]{2-[4-(aminomethyl)phenyl]-2-methylpropyl}amine] | D (D=>20 uM) | – |
| Nc1n[nH]c2ccc(-c3ccc(NC[C@]4(c5ncccc5F)C[C@H](F)C4)nn3)cc12 [[6-(3-amino(1H-indazol-5-yl))pyridazin-3-yl]{[3-fluoro-1-(3-fluoro(2-pyridyl))cyclobutyl]methyl}amine] | – | Mean AC1.4 [2]: A (A=<1 uM) |
| Nc1n[nH]c2ccc(-c3ccc(NCC4(c5ccccc5F)CCC4)nn3)cc12 [[6-(3-amino(1H-indazol-5-yl))pyridazin-3-yl]{[(2-fluorophenyl)cyclobutyl]meth-yl}amine] | A (A=<1 uM) | – |
| Nc1n[nH]c2ccc(-c3ccc(NCC4(c5ccccc5F)CC4)nn3)cc12 [[6-(3-amino(1H-indazol-5-yl))pyridazin-3-yl]{[(2-fluorophenyl)cyclopropyl]meth-yl}amine] | A (A=<1 uM) | – |

The next lines start with results.

| Mean AC1.4 [1] | SMILES | further results |
| --- | --- | --- |
| B (B=1-10 uM) | CC(C)(CNc1ccc(-c2cnc(N)nc2)nn1)c1ccc(F)cc1 [[6-(2-aminopyrimidin-5-yl)pyridazin-3-yl][2-(4-fluorophenyl)-2-methylpropyl]amine] | – |
| A (A=<1 uM) | COc1cccc(C(C)(C)CNc2ccc(-c3ccc4[nH]nc(N)c4c3)nn2)c1 [[6-(3-amino(1H-indazol-5-yl))pyridazin-3-yl][2-(3-methoxyphenyl)-2-methylpropyl]amine] | – |
| A (A=<1 uM) | Cc1ccc(C(C)(C)CNc2ccc(-c3ccc4[nH]nc(N)c4c3)nn2)cc1 [[6-(3-amino(1H-indazol-5-yl))pyridazin-3-yl][2-methyl-2-(4-methylphenyl)propyl]amine] | – |
| C (C=10-20 uM) | COCc1ccccc1C(C)(C)CNc1ccc(-c2ccc3[nH]nc(N)c3c2)nn1 [[6-(3-amino(1H-indazol-5-yl))pyridazin-3-yl]{2-[2-(methoxymethyl)phenyl]-2-methylpropyl}amine] | – |
| A (A=<1 uM) | Nc1n[nH]c2ccc(-c3ccc(NCC4(c5ccccc5F)CCCC4)nn3)cc12 [[6-(3-amino(1H-indazol-5-yl))pyridazin-3-yl]{[(2-fluorophenyl)cyclopentyl]meth-yl}amine] | – |
